Measured values as given in patent publication US20160039904A1, “STABILIZED SINGLE HUMAN CD4 DOMAINS AND FUSION PROTEINS” (priority 2013, published 2016).
Where two headings read alike, the source gives them in different places.

Tests used:
HIV-1 IIIB = test: Pseudotyped HIV-1 neutralization (HOS-CD4-CXCR4 cells); format: cell-based; conditions: Table 3, clade B, X4
Method: (§1) To determine the potency and breadth of HIV-1 neutralization by the D1 mutants, viruses pseudotyped with Envs from HIV-1 isolates representing clades A-E and using either CCR5 (R5) or CXCR4 (X4) or both (R5X4) as a coreceptor were included. Pseudoviruses were derived from 293T cells and a neutralization assay was performed in duplicate using HOS-CD4-CCR5 (for all R5 and dual tropic viruses) or HOS-CD4-CXCR4 cell lines as described in Chen et al., Proc. Natl. Acad. Sci. USA, 105: 17121-17126 (2008)). Luminescence was measured 48 hours post-infection and the percentage neutralization was calculated by the following formula: (1—average RLU of inhibitor-containing wells/average RLU or virus-only wells)×100.

HIV-1 NL4-3 = test: as above; format: cell-based; conditions: Table 3; NL4-3, clade B, X4
Method: as §1

[1] = test system: HIV-1 pseudotyped with Envs from different clades; test: Pseudotyped HIV-1 neutralization, means over the panel of Table 3; format: cell-based; conditions: all viruses, <[…] assigned 0.01, 2G12: 10 isolates significantly neutralized
Method: as §1

HIV-1 Env Bal = test: HIV-1 Env-mediated cell-cell fusion; format: cell-based; conditions: R5
HIV-1 Env JRFL = test: HIV-1 Env-mediated cell-cell fusion; format: cell-based; conditions: Table 5, clade B, R5
HIV-1 KNH1088.EC5 = test: TZM-bl cell-based neutralization assay; conditions: Table 6; KNH1088.EC5, clade A, R5
HIV-1 Bal.EC1 TC = test: TZM-bl cell-based neutralization assay; conditions: Table 6, clade B, R5
HIV-1 BZ167.ec9 = test: TZM-bl cell-based neutralization assay; conditions: Table 6; BZ167.ec9, clade B, X4
HIV-1 GS-015.EC12 = test: TZM-bl cell-based neutralization assay; conditions: Table 6; GS-015.EC12, clade C, R5
HIV-1 PBL286.VRC36aPV = test: TZM-bl cell-based neutralization assay; conditions: Table 6, clade C, R5
HIV-1 A07412VRC12A = test: TZM-bl cell-based neutralization assay; conditions: Table 6, clade D, R5
HIV-1 N1 1046.e3 PV = test: TZM-bl cell-based neutralization assay; conditions: Table 6, clade AE, R5
HIV-1 55815.EC3 = test: TZM-bl cell-based neutralization assay; conditions: Table 6; 55815.EC3, clade AG, R5
[2] = test system: HIV-1 isolates from clades A to D, AE, and AG; test: TZM-bl cell-based neutralization assay, means over the panel (n=12); conditions: Table 6, all viruses, >167 nM assigned 200, >250 assigned 300
HIV-1 CH64 = format: cell-based; conditions: Table 7; CH64, clade BC, R5
HIV-1 CH117 = format: cell-based; conditions: Table 7; CH117, clade BC, R5
HIV-1 CH120 = format: cell-based; conditions: Table 7; CH120, clade BC, R5
HIV-1 CNE46 = format: cell-based; conditions: Table 7; CNE46, clade BC, R5
HIV-1 CNE68 = format: cell-based; conditions: Table 7; CNE68, clade BC, R5
HIV-1 CNE65 = format: cell-based; conditions: Table 7; CNE65, clade C, R5
HIV-1 CNE107 = format: cell-based; conditions: Table 7; CNE107, clade AE, X4
HIV-1 AE03 = format: cell-based; conditions: Table 7; AE03, clade AE, R5
HIV-1 YN192.31 = format: cell-based; conditions: Table 7; YN192.31, clade AE, R5
HIV-1 GX2010.36 = format: cell-based; conditions: Table 7; GX2010.36, clade AE, R5
[3] = Dynamic light scattering (aggregation); format: physicochemical
Method: To test whether soluble aggregates of 4Dm2m and 6Dm2m formed during prolonged incubation, dynamic light scattering (DLS) was used. Proteins concentrated to 10 mg/ml in PBS were stored at […] and slowly thawed on ice before measurements.

[4] = Solubility of fusion proteins in PBS (concentration, centrifugation); format: physicochemical
Method: To evaluate the potential for further development as drugs, several drug-related properties, including solubility, stability, and aggregation propensity were tested.

[5] = Stability against degradation in PBS at 37° C. (binding activity to gp140Con-s); format: physicochemical
Method: The proteins were then assessed for their stability against degradation during 15 days of incubation with PBS (see FIG. 12A) or human serum (see FIG. 12B) at 37° C.

With “4Dm2m: bispecific multivalent fusion protein of mD1.22 and m36.4; two SEQ ID NO: 20 and two SEQ ID NO: 21 chains” the IC50 (HIV-1 IIIB) was 0.037 ± 0.001 nM, the IC90 (HIV-1 IIIB) was 0.1 ± 0.01 nM and the IC50 (HIV-1 NL4-3) was 0.094 ± 0.002 nM. For the same substance, the IC90 (HIV-1 NL4-3) was 0.15 ± 0.02 nM, the “IC50, arithmetic mean” value [1] was 0.22 nM and the “IC50, geometric mean” value [1] was 0.12 nM. For the same substance, the “IC90, arithmetic mean” value [1] was 1.6 nM, the “IC90, geometric mean” value [1] was 0.56 nM and the IC50 (HIV-1 Env Bal; Table 4, clade B) was 4.1 nM. The IC50 (HIV-1 Env Bal; Table 5, clade B) was 4.1 ± 0.1 nM, the IC50 (HIV-1 Env JRFL) was 3.6 ± 0.2 nM and the IC90 (HIV-1 Env JRFL) was 8.8 ± 0.4 nM. For the same substance, the IC50 (HIV-1 KNH1088.EC5) was 0.48 nM, the IC50 (HIV-1 Bal.EC1 TC) was 0.057 nM and the IC90 (HIV-1 Bal.EC1 TC) was 0.22 nM. The IC50 (HIV-1 BZ167.ec9) was 0.077 nM, the IC90 (HIV-1 BZ167.ec9) was 0.5 nM and the IC50 (HIV-1 GS-015.EC12) was 0.022 nM. For the same substance, the IC50 (HIV-1 PBL286.VRC36aPV) was 2 nM, the IC50 (HIV-1 A07412VRC12A) was 0.75 nM and the IC90 (HIV-1 A07412VRC12A) was 5.7 nM. For the same substance, the IC90 (HIV-1 N1 1046.e3 PV) was 27 nM, the IC50 (HIV-1 55815.EC3) was 0.084 nM and the IC90 (HIV-1 55815.EC3) was 0.61 nM. The IC50 ([2]; read-out: IC50, arithmetic mean) was 0.72 nM, the IC50 ([2]; read-out: IC50, geometric mean) was 0.28 nM and the IC90 ([2]; read-out: IC90, geometric mean) was 2.4 nM. The IC90 (HIV-1 CH64) was 1.6 nM, the IC50 (HIV-1 CH117) was 0.33 nM and the IC50 (HIV-1 CH120) was 0.33 nM. For the same substance, the IC90 (HIV-1 CH120) was 6.6 nM, the IC50 (HIV-1 CNE46) was 0.27 nM and the IC90 (HIV-1 CNE46) was 9.4 nM. For the same substance, the IC50 (HIV-1 CNE68) was 0.11 nM, the IC90 (HIV-1 CNE68) was 0.78 nM and the IC50 (HIV-1 CNE65) was 0.28 nM. It also gave an IC90 (HIV-1 CNE65) of 3.3 nM, an IC50 (HIV-1 CNE107) of 0.52 nM and an IC50 (HIV-1 AE03) of 0.67 nM. For the same substance, the IC50 (HIV-1 YN192.31) was 0.89 nM, the IC50 (HIV-1 GX2010.36) was 0.11 nM and the aggregation propensity [3] was “low aggregation propensity”. The “aggregation during incubation (DLS)” value ([3]; 10 mg/ml in PBS, 4° C. and 37° C.) was “disappeared within the first day of incubation”, the “average diameter of particles (DLS)” value ([3]; 10 mg/ml in PBS, after freeze-thaw, predominantly small particles) was 16.3 nm and the precipitation on storage ([4]; 4° C. for 2 weeks) was “no additional precipitation was observed”. For the same substance, the “concentration reached in PBS without visible precipitation after high-speed centrifugation” value ([4]; PBS) was 25000 µg/mL, the remained functional ([5]; end of 15 days of incubation with PBS) was “about 90%” and the “amount of functional protein” value ([5]; incubation in PBS for 10 days) was “no significant decrease”.

In the case of enfuvirtide, the IC50 (HIV-1 CH64) is reported as 3.1 nM, the IC90 (HIV-1 CH64) is reported as 25 nM and the IC50 (HIV-1 CH117) is reported as 2.3 nM. The IC90 (HIV-1 CH117) was 34 nM, the IC50 (HIV-1 CH120) was 11 nM and the IC90 (HIV-1 CH120) was 443 nM. The IC50 (HIV-1 CNE46) was 26 nM, the IC90 (HIV-1 CNE46) was 743 nM and the IC50 (HIV-1 CNE68) was 32 nM. The IC90 (HIV-1 CNE68) was 321 nM, the IC50 (HIV-1 CNE65) was 5.9 nM and the IC90 (HIV-1 CNE65) was 78 nM. It also gave an IC50 (HIV-1 CNE107) of 3.8 nM, an IC90 (HIV-1 CNE107) of 45 nM and an IC50 (HIV-1 AE03) of 304 nM. It also gave an IC90 (HIV-1 AE03) of 510 nM, an IC50 (HIV-1 YN192.31) of 42 nM and an IC90 (HIV-1 YN192.31) of 336 nM. It also gave an IC50 (HIV-1 GX2010.36) of 255 nM and an IC90 (HIV-1 GX2010.36) of over 750 nM.
